The record followed here is US20050106173A1, “METHODS AND COMPOSITIONS FOR TREATING MALE SEXUAL DYSFUNCTION” (priority 2003, published 2005).

Format in all cases: in vivo
The subject of experiment [1] is castrated male Wistar rats. The experiment can be described thus: Sexual activity of castrated male rats caged with female rats (mounting, sniffing and licking frequency). The following applies: once daily for 30 days (yeast 1.2 ml/kg intragastric; testosterone propionate 2 mg/kg i.m.), day 29, two female rats in cage. As for the experimental part: To test the ability of the EMF-treated AS2.502 cells to improve male sexual function, hormone levels, and sexual organ development, 50 healthy adult male Wistar rats (about 100-120 g body weight, 6-8 weeks old) were selected. Ten rats were randomly selected to be the normal control group, CK1 (uncastrated rats). Under anesthesia with pentobarbital (5%, at 45 mg/kg body weight), both testes (including the epididymis) of each of the remaining 40 rats were removed under sterile conditions. Immediately after castration, Penicillin G was injected at 20,000 U/kg body weight once daily for five consecutive days. The castrated rats were then randomly divided into four equal groups, designated as AY (for treatment with the activated yeast composition), NY (for treatment with the control yeast composition), CK2 (for treatment with testosterone propionate), and CK3 (for treatment with saline). Each rat was kept separately. The activated yeast composition was administered to the AY rats at 1.2 ml/kg body weight once daily for 30 days. […]
On the twenty-ninth day of the experiment, two female rats (100-120 g, 6-8 weeks old) were put into the same cage as each male rat and kept there for 30 minutes. The frequency of the male rat's sniffing and licking of the female rats, and the frequency of the male rat's mounting of the female rats were recorded in Table 2.

Experiment [2] relates to castrated male Wistar rats. The experiment can be described thus: Wet weight of glandulae preputiales, seminal vesicle and prostate of castrated rats. The note with it: once daily for 30 days, sacrificed day 31. As for the experimental part:
(§1) To test the ability of the EMF-treated AS2.502 cells to improve male sexual function, hormone levels, and sexual organ development, 50 healthy adult male Wistar rats (about 100-120 g body weight, 6-8 weeks old) were selected. Ten rats were randomly selected to be the normal control group, CK1 (uncastrated rats). Under anesthesia with pentobarbital (5%, at 45 mg/kg body weight), both testes (including the epididymis) of each of the remaining 40 rats were removed under sterile conditions. Immediately after castration, Penicillin G was injected at 20,000 U/kg body weight once daily for five consecutive days. The castrated rats were then randomly divided into four equal groups, designated as AY (for treatment with the activated yeast composition), NY (for treatment with the control yeast composition), CK2 (for treatment with testosterone propionate), and CK3 (for treatment with saline). Each rat was kept separately. The activated yeast composition was administered to the AY rats at 1.2 ml/kg body weight once daily for 30 days. The control yeast composition was administered to the NY rats and saline was administered to the CK3 rats at the same dosage. […]
Each male rat was sacrificed on the thirty-first day. […] The wet weight of the prostate and seminal vesicle was recorded in Table 2. […] The wet weight of the glandulae preputiales was also recorded in Table 2.

For experiment [3], the system named is castrated Wistar rats. The experiment can be described thus: Erectile function by electrical stimulation (erection lag) in castrated rats. The following applies: once daily for 30 days, day 31, stimulator 55 Hz and 4.5 mA. As for the experimental part:
as §1, with “150-180” for “100-120”, “8-10” for “6-8”
On the thirty-first day of the experiment, an electrical stimulator was used to measure the erectile function of the rats. […] The time needed for the penis to achieve erection (“the erection lag”) was recorded in Table 3.

Experiment [4] concerns castrated Wistar rats. The experiment can be described thus: Blood testosterone concentration by radio-immunoassay (RIA) in castrated rats. The following applies: once daily for 30 days, blood after the erection test on day 31, RIA. As for the experimental part: as §1, with “150-180” for “100-120”, “8-10” for “6-8”
Each rat was sacrificed after the erection test. Blood samples were collected from each rat, and the blood concentration of testosterone was determined by the standard radio-immunoassay (RIA) method.

In the case of `CCC(=O)O[C@H]1CC[C@H]2[C@@H]3CCC4=CC(=O)CC[C@]4(C)[C@H]3CC[C@]12C` [testosterone propionate], in experiment [1], the “Mounting Frequency Within a 30 min Period” value is on record as 12.3 ± 4.6 and the “Sniffing & Licking Frequency Within a 30 min Period” value was determined as 22.7 ± 4.6. Further, in experiment [2], the “Glandulae Preputiales (wet weight)” value is reported as 89.5 ± 14.6 mg; the “Seminal Vesicle and Prostate (wet weight)” value stood at 198.7 ± 42.6 mg. Further, the “Erection Lag” value with castrated Wistar rats [3] was determined as 19.3 ± 14.6 s. Moreover, the “Testosterone Levels” value in the experiment on castrated Wistar rats [4] is 124.17 ± 67.65 ng/dL.
